From ChEMBL document CHEMBL1141229, “On the use of nonfluorescent dye labeled ligands in FRET-based receptor binding studies” (J Med Chem, 2005)

Target: Muscarinic acetylcholine receptor M1 (Homo sapiens, UniProt P11229)
Test: Displacement of [3H]QNB from EGFP(delta-17)human M1 receptor expressed in HEK cells
Assay type: cell-based
Conditions: hek293

Sequence of Muscarinic acetylcholine receptor M1 (P11229 whole entry, looked up): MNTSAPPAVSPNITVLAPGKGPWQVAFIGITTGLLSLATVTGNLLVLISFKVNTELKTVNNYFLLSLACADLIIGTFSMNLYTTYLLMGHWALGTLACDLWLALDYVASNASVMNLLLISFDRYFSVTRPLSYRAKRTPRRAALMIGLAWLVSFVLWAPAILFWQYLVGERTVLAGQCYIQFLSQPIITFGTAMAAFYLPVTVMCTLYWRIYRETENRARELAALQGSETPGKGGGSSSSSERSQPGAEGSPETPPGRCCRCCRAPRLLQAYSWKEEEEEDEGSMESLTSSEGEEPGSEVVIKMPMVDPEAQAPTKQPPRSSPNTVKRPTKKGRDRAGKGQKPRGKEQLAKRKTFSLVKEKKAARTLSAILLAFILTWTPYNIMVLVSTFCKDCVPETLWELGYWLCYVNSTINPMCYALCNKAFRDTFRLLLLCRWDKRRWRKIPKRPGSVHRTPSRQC

SMILES	Ki
CCN1/C(=C/C=C/c2ccc3cc(NC(=O)CCCCC(=O)O)ccc3[n+]2CC)C=Cc2ccccc21	> 10000 nM
O=C(CCCCCNC(=O)CCc1ccc2n1[B-](F)(F)[N+]1=C(c3cccs3)C=CC1=C2)NCCCCN1CCN(CC(=O)N2c3ccccc3C(=O)Nc3cccnc32)CC1	69.7 nM
CCN(CC)c1ccc2c(-c3ccc(S(=O)(=O)NCCCCCC(=O)NCCOCCOCCN4CCN(CC(=O)N5c6ccccc6C(=O)Nc6cccnc65)CC4)cc3S(=O)(=O)[O-])c3ccc(=[N+](CC)CC)cc-3oc2c1	53.5 nM
CCN1/C(=C/C=C/c2ccc3cc(NC(=O)CCCCC(=O)NCCOCCOCCN4CCN(CC(=O)N5c6ccccc6C(=O)Nc6cccnc65)CC4)ccc3[n+]2CC)C=Cc2ccccc21	29.4 nM
CCN(CC)c1ccc([C+](c2ccc(N(CC)CC)cc2)c2ccc(S(=O)(=O)NCCCCCC(=O)O)cc2S(=O)(=O)[O-])cc1	> 10000 nM
CCN(CC)c1ccc([C+](c2ccc(N(CC)CC)cc2)c2ccc(S(=O)(=O)NCCCCCC(=O)NCCOCCOCCN3CCN(CC(=O)N4c5ccccc5C(=O)Nc5cccnc54)CC3)cc2S(=O)(=O)[O-])cc1	189 nM
